Data on 18 molecules can be found in PubChem BioAssay (NCI).

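Tested at 5 concentrations; 48 h exposure; 96-well plates; endpoints linearly interpolated, else capped at highest concentration. GI50: concentration for 50% inhibition of growth. TGI: concentration producing complete growth inhibition.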

Common to all, as to assay: NCI tumour cell line growth inhibition, 48 h
Test [1] concerns OVCAR-5 ovarian.
The test system of test [2] is SK-OV-3 ovarian.
Test [3] deals with SF-268 CNS.
Test [4] concerns A549 NSCLC.
Test [5] concerns U251 CNS.
Test [6] has as its system SK-MEL-5 melanoma.
Test [7] relates to K-562 leukemia.
Test [8] concerns HL-60(TB) leukemia.
Test [9] deals with OVCAR-3 ovarian.
Test [10] concerns SF-539 CNS.

For the molecule `Cc1ccc(C(=O)NCCCOc2ccc(N3C(N)=NC(N)=NC3(C)C)cc2Cl)cc1S(=O)(=O)F`, the GI50 in test [1] is > 100 µM; in test [2], > 100 µM; in test [3], 10.7 µM; in test [4], 39.5 µM; in test [5], 7.72 µM; in test [6] it was 4.78 µM. Moreover, the GI50 in test [7] was 8.81 µM; in test [8], > 100 µM; in test [9], > 100 µM; in [10], 8.1 µM. For the same molecule, the TGI in test [1], in test [2], in [3], in test [4], in test [5] and in [6] was > 100 µM in each case. Also, the TGI in [7], in test [8], in [9] and in test [10] was > 100 µM throughout.
Regarding `O=C1Nc2cc(-c3cccc(O)c3)ccc2/C1=C/c1ccc[nH]1`, the GI50 in test [1] was 2.89 µM; in [2], 0.655 µM; in test [3], 1.76 µM; in test [4], 3.05 µM; in test [5] it was 2.38 µM; in test [6], 1.6 µM. Also, the GI50 was 0.355 µM in test [7], 1.51 µM in [8], 1.43 µM in test [9] and 1.12 µM in test [10]. The TGI was found to be 15.4 µM in test [1]; 5.22 µM in test [2]; 8.04 µM in test [3]; 11.8 µM in [4]; 12.1 µM in [5]; 3.32 µM in test [6]. Moreover, the TGI in test [7] was > 100 µM; in test [8], 7.05 µM; in [9], 5.85 µM; in test [10] it was 2.49 µM.
As to `Cc1ccc(C(=O)c2sc3nc4c(cc3c2N)CCCC4)c(C)c1`, the GI50 in test [1] is 2.49 µM; in [2] it was 0.515 µM; in test [3], 0.787 µM; in test [4], 0.377 µM; in [5], 0.376 µM; in test [6] it was 0.32 µM. The GI50 in test [7] is 0.0934 µM; in [8], 0.263 µM; in test [9], 0.183 µM; in test [10], 0.25 µM. Besides, the TGI is > 100 µM in [1]; > 100 µM in test [2]; > 100 µM in test [3]; > 100 µM in test [4]; > 100 µM in test [5]; > 37.9 µM in test [6]. For the same molecule, the TGI was > 100 µM in [7], > 38.8 µM in [8], > 31.9 µM in test [9] and 0.956 µM in test [10].
Turning to `CNC(=O)c1cc(Oc2cccc3nc(NC(=O)Nc4cc(C(F)(F)F)cc(C(F)(F)F)c4)ccc23)ccn1`, the GI50 in [1] was 13.3 µM; in test [2], 2.99 µM; in [3], 4.93 µM; in [4], 4.54 µM; in test [5], 2.47 µM; in [6], 6.2 µM. Also, the GI50 in test [7] was 9.29 µM; in test [8], 23.4 µM; in test [9] it was 4.07 µM; in test [10], 6.68 µM. The TGI is > 100 µM in test [1]; 10.1 µM in [2]; 39.4 µM in test [3]; > 100 µM in [4]; 6.27 µM in test [5]; 24.2 µM in [6]. The TGI is > 100 µM in test [7], 77.2 µM in test [8], 21.3 µM in test [9] and 37.9 µM in [10].
On to `CN(C)CCC(/C=C/c1ccccc1)=N\Nc1ccc(Cl)c(Cl)c1`, for which the TGI in test [1] came out at 15.6 µM; in [2] it was 15.5 µM; in [3], 8.81 µM; in test [4], 10.6 µM; in test [5] it was 13.6 µM; in test [6], 8.96 µM. The TGI in test [7] amounted to 6.03 µM; in test [8] it was 7.31 µM; in [9] it was 16.8 µM; in test [10], 4.17 µM.
Turning to `O=C(O)[C@@H]1OCCOCCO[C@@H](C(=O)O)[C@H](C(=O)O)OCCOCCO[C@H]1C(=O)O`, the TGI in test [1] is > 100 µM; in [2] it was > 100 µM; in test [3], > 100 µM; in test [4], > 100 µM; in test [5] it was > 86.9 µM; in [6] it was > 100 µM. For the same molecule, the TGI in test [7] was > 100 µM; in test [8], 38.4 µM; in test [9] it was > 100 µM; in [10], > 100 µM.
As for `CCCOc1cc2ccccc2cc1C(=O)Nc1nc(NC)c2c(ccc3nccc32)[nH]1`, the GI50 in test [1] is 1.4 µM; in test [2], 0.473 µM; in test [3], 0.559 µM; in test [4], 0.978 µM; in test [5], 0.521 µM; in test [6] it was 0.994 µM. Also, the GI50 in [7] is 0.0883 µM; in [8], 0.23 µM; in test [9], 0.248 µM; in [10], 0.623 µM. For the same molecule, the TGI turned out to be 3 µM in test [1]; 1.78 µM in test [2]; 2.05 µM in test [3]; 2.39 µM in [4]; 1.74 µM in test [5]; 2.2 µM in [6]. For the same molecule, the TGI is 0.912 µM in test [7], 0.611 µM in test [8], 1.13 µM in test [9] and 2.06 µM in test [10].
As to `N#Cc1ccc(-c2c(-c3ncn[nH]3)sc(N3CCOCC3)c2C#N)c(F)c1`, the GI50 in test [1] was 0.455 µM; in [2], 0.197 µM; in test [3] it was 0.507 µM; in test [4], 0.666 µM; in test [5] it was 1.03 µM; in test [6], 2.29 µM. Moreover, the GI50 was 5.52 µM in test [7], 0.781 µM in test [8], 0.502 µM in test [9] and 0.571 µM in test [10]. Further, the TGI was 10.5 µM in test [1]; 5.69 µM in [2]; 59.1 µM in test [3]; 12.7 µM in test [4]; 21.7 µM in test [5]; 13.7 µM in test [6]. Besides, the TGI was > 100 µM in [7], > 100 µM in [8], 7.89 µM in test [9] and 4.53 µM in [10].
Consider `CO[C@@H]1CCN(c2nccc(Nc3cc4c(C(C)C)ccc(N5CC(CS(C)(=O)=O)[C@H]5C)c4cn3)n2)C[C@@H]1F` (some centres undefined), for which the GI50 in test [1] was 6.36 µM; in [2], 7.42 µM; in test [3], 3.98 µM; in test [4], 3.06 µM; in test [5], 4.31 µM; in test [6], 2.22 µM. Further, the GI50 in test [7] was 2.9 µM; in test [8] it was 3.06 µM; in test [9], 3.07 µM; in test [10], 5.05 µM. Further, the TGI was > 100 µM in test [1]; > 100 µM in test [2]; > 100 µM in test [3]; > 100 µM in test [4]; > 100 µM in test [5]; 5.42 µM in test [6]. Also, the TGI in test [7] is > 100 µM; in test [8] it was > 100 µM; in test [9], > 100 µM; in test [10], 24.3 µM.
Regarding `CN(C)C(=O)OCc1nc2c(N3CCOCC3)nc(-c3ccccc3)nc2n1C`, the GI50 in test [1] was 1.6 µM; in test [2], 4.06 µM; in test [3], 1.39 µM; in [4] it was 1.56 µM; in [5], 1.47 µM; in test [6] it was 1.42 µM. Also, the GI50 in [7] was 0.332 µM; in test [8] it was 0.375 µM; in test [9] it was 0.203 µM; in [10], 1.4 µM. The TGI in [1] worked out at 3.26 µM; in test [2], 13.5 µM; in test [3], 2.77 µM; in test [4], 3.75 µM; in [5], 2.98 µM; in test [6], 2.73 µM. Besides, the TGI in test [7] was found to be 3.17 µM; in test [8], 1.96 µM; in test [9] it was 0.433 µM; in test [10], 2.72 µM.
Consider `C/C(=N\NC(=O)C[N+](C)(C)C)c1sc(-c2cccnc2)nc1C`, for which the TGI in test [1], in [2], in test [3], in [4], in test [5] and in test [6] was > 100 µM in each case. Further, the TGI in [7], in [8], in test [9] and in [10] was > 100 µM each time.
Take `CNCC/C=C1\c2cc3c(cc2-c2c1c1cc(OC)c(OC)cc1c(=O)n2C)OCO3`: the GI50 in test [1] is 4.51 µM; in test [2], 3.28 µM; in test [3], 0.992 µM; in [4], 1.85 µM; in [5] it was 0.309 µM; in test [6], 0.548 µM. The GI50 was 0.196 µM in test [7], 0.239 µM in test [8], 1.04 µM in test [9] and 0.4 µM in [10]. In addition, the TGI in [1] is 27.4 µM; in test [2] it was 23.6 µM; in [3] it was 25.1 µM; in test [4] it was 18.8 µM; in [5], 19.1 µM; in test [6] it was 2.89 µM. The TGI came to 2.57 µM in test [8], 17.9 µM in test [9] and 5.85 µM in [10].
With `COCCOCCOCc1n(Cc2ccc3ccccc3c2)c2ccccc2[n+]1Cc1ccc2ccccc2c1`, the GI50 is 0.927 µM in [1]; 1.14 µM in test [2]; 0.442 µM in test [3]; 1.33 µM in test [4]; 0.352 µM in [5]; 0.216 µM in test [6]. Besides, the GI50 in test [7] was 0.239 µM; in [8], 0.115 µM; in test [9] it was 0.322 µM; in test [10] it was 0.587 µM. The TGI turned out to be 2.26 µM in test [1]; 2.49 µM in test [2]; 1.68 µM in test [3]; 3.84 µM in test [4]; 1.48 µM in [5]; 0.544 µM in [6]. The TGI in [7] is 1.46 µM; in [8] it was 0.38 µM; in test [9], 1.48 µM; in [10], 2.01 µM.
For `CCCCCCCCOCC(O)CO` (centres undefined), the TGI in [1], in test [2], in [3], in test [4], in test [5] and in test [6] was > 100 µM in each case. In addition, the TGI in test [7], in test [8], in test [9] and in test [10] was > 100 µM in each case.
Consider `Cc1cc(N(CCC#N)CCC#N)ccc1N=Nc1cc(Cl)ccc1Cl`, for which the TGI worked out at 27.4 µM in test [1]; 29.9 µM in test [2]; 29.9 µM in test [3]; 38.5 µM in test [4]; 33.5 µM in test [5]; 30.3 µM in test [6]. In addition, the TGI is 11.4 µM in test [7], 16 µM in test [8], 18.2 µM in [9] and 19.4 µM in [10].
As for `CCOc1ccccc1NC(=O)C(=O)C(/C(=N/N)C(=O)OC)c1nc2ccc([N+](=O)[O-])cc2[nH]c1=O` (centres undefined), the TGI in test [1], in test [2], in test [3], in [4], in test [5] and in [6] was > 100 µM each time. Further, the TGI in [7], in test [8], in test [9] and in test [10] was > 100 µM throughout.
As to `C/C(=N\NC(N)=S)c1ccc(C)c(C)c1`, the TGI in [1], in test [2], in [3], in test [4], in [5] and in test [6] was > 100 µM throughout. The TGI was > 100 µM in [7], 75.4 µM in [8], 66.7 µM in test [9] and > 100 µM in test [10].
Regarding `CCN(CC)c1c(-c2ccccc2)n[nH]c1C(=O)OC`, the GI50 was 31 µM in [1]; 17.4 µM in [2]; 22.9 µM in [3]; 31.6 µM in test [4]; 25.2 µM in test [5]; 14.5 µM in [6]. Also, the GI50 in [7] was 31.2 µM; in test [8] it was 18.7 µM; in test [9], 15.1 µM; in test [10], 20.1 µM. The TGI was > 100 µM in test [1]; 50.5 µM in test [2]; 59.7 µM in test [3]; > 100 µM in test [4]; 66.4 µM in test [5]; 27.6 µM in test [6]. Further, the TGI in test [7] is > 100 µM; in [8], 48.8 µM; in test [9] it was 36.8 µM; in [10] it was 36.5 µM.
